How the values were obtained:
[1] = system: PHA/IL-2 stimulated human lymphoblasts infected with HIVNDK; test: Plasma membrane depolarization after HIVNDK infection (DiBac4(3), flow cytometry); type: cell-based; conditions: 1 hour of HIVNDK infection (Fig. 4e)
HIVNL43 = test: Target cell infectivity, Tat-inducible β-galactosidase reporter; type: cell-based, HIV-1; conditions: HIVNL43, MOI 1, β-Gal reporter, 24 h after infection
[2] = system: CD4^+CXCR4^+ target cells; type: cell-based, human
Protocol: Supplementary FIG. 1 Pannexin-1-dependent ATP release during HIV-1 infection and during HIV-1 Env-mediated fusion. (a) Effect of apyrase and AMD3100 on target cell viability. The viability of cells incubated for 3 hours with different concentrations of apyrase or AMD3100 (as indicated) and then infected with HIV-1NL43 for 2 days, was assessed by the MTT (3-[4,5-dimethylthiazol-2-yl]-2,5-diphenyl tetrazolium bromide) assay, as detailed in Methods. (b) Effects of apyrase and AMD3100 on ATP release detected during HIV-1 infection. […] After 2 hours of infection, ATP release was determined as described in Methods. […] Cell viability in c was assessed as in a (mean±s.e.m; n=3; *P<0.05). Fusion between HIV-1 Env-expressing cells (that also express Tat protein) and CD4^+CXCR4^+ target cells (that contain Tat-inducible β-galactosidase) was determined by measuring β-galactosidase (β-Gal) activity (d), as described in Methods. (e) Effects of Pannexin-1 knockdowns on HIV-1 Env-mediated fusion, as described in (c). Data in (a), (b), (c), (d) and (e) were determined in 3 independent experiments (mean±s.e.m; *P<0.05).

[3] = system: CD4/CXCR4-expressing cells cocultured with Env-expressing cells; test: HIV-1 envelope mediated conjugate formation (actin polymerization between two interacting cells); conditions: coculture of Env-expressing and CD4/CXCR4-expressing cells (Fig. 1d)
Protocol: Error bars indicate SD of 3 independent determinations (means±SD; *P<0.05). (d) Effect of ATP depletion by apyrase on HIV-1 envelope mediated actin polymerization. Actin polymerization between two interacting cells was determined in 3 independent experiments (means±SEM; *P<0.05) by fluorescent microscopy (e) Localization of pannexin-1 at the contact site between primary HIV-1-infected lymphoblasts (green) and primary uninfected lymphoblasts, visualized by confocal microscopy.
HeLa cells stably transfected with the Env gene of HIV-1 LAI/IIIB (HeLa Env) and HeLa cells transfected with CD4 (HeLa CD4) were cultured alone or together at a 1:1 ratio in Dulbecco's modified Eagle's medium supplemented with 10% FCS, 2 mM L-glutamine and penicillin/streptomycin (Invitrogen) in the absence or in presence of tested molecules.

[4] = system: HIVNDK infected (PHA/IL-2 stimulated) lymphoblasts; type: cell-based, human; conditions: HIVNDK (Fig. 6d)
HIVNDK = type: cell-based, HIV-1; conditions: activated T-lymphoblasts (Fig. 2a, S2a)
HIVBaL = type: cell-based, HIV-1; conditions: activated T-lymphoblasts (Fig. 2a, S2a)
[5] = system: HIV-1 envelope mediated hemifusion/fusion of HeLa Env^+ and HeLa CD4^+ cells; test: Hemifusion and cell-cell fusion assays, HeLa Env+ / HeLa CD4+ coculture; type: cell-based, human; conditions: absence or presence of 70 mM KCl for 3 h; 5 μM AMD3100 (Fig. 4d)
CD4^+CXCR4^+ cells = test: Plasma membrane depolarization of uninfected cells (DiBac4(3), flow cytometry); type: cell-based, human; conditions: 70 mM KCl for 3 h (Fig. 4b,c)
[6] = system: CD4^+CXCR4^+ cells infected with HIVNL43

| Compound | plasma membrane depolarization induced by HIV-1 infection [1] | CD4+ T cell depletion / death of activated CD4+ T lymphoblasts (7-AAD uptake) [4] | viral infection of lymphoblasts (intracellular p24 antigen) [4] | replication of X4-tropic HIV (HIVNDK) | replication of R5-tropic HIV (HIVBaL) | fusion of Env+ and CD4+/CXCR4+ cells [5] | also measured |
| --- | --- | --- | --- | --- | --- | --- | --- |
| apyrase | abolished |  |  |  |  |  | HIV-1 infection (target cell infectivity) (HIVNL43): prevented HIV-1 infection; toxicity / target cell viability [2]: non-toxic; conjugate formation revealed by actin polymerization between two interacting cells [3]: abolished conjugate formation |
| Cc1nc(N=Nc2ccc(S(=O)(=O)O)cc2S(=O)(=O)O)c(COP(=O)(O)O)c(C=O)c1O [PPADS] |  | reduces | reduces viral infection | blocked the replication | blocked the replication |  |  |
| [Cl-].[K+] [KCl] |  |  |  |  |  | enhanced the fusion | plasma membrane depolarization (CD4^+CXCR4^+ cells): strongly induced membrane depolarization |
| Nc1ncnc2c1ncn2[C@@H](C=O)O[C@@H](C=O)COP(=O)(O)OP(=O)(O)OP(=O)(O)O [OxATP, oxidized ATP] |  |  |  | blocked the replication | blocked the replication |  |  |
| Cc1ccc(C(=O)Nc2ccc(S(=O)(=O)O)c3cc(S(=O)(=O)O)cc(S(=O)(=O)O)c23)cc1NC(=O)c1cccc(NC(=O)Nc2cccc(C(=O)Nc3cc(C(=O)Nc4ccc(S(=O)(=O)O)c5cc(S(=O)(=O)O)cc(S(=O)(=O)O)c45)ccc3C)c2)c1 [suramin] |  | reduces | reduces viral infection | blocked the replication | blocked the replication |  |  |
| c1cc(CN2CCCNCCNCCCNCC2)ccc1CN1CCCNCCNCCCNCC1 [AMD3100] | abolished |  |  |  |  | reduced | ATP release during HIV-1 infection [6]: prevented ATP release |
